Data taken from US20120245137A1 (Zalicus Pharmaceuticals Ltd., priority 2009, published 2012).

Molecular target: N-type calcium channel subunits (α1B, α2δ, and β3a) (Homo sapiens, UniProt Q00975)
Test: Block of Cav2.2 channel, whole cell voltage clamp, manual and PatchXpress
Type: cell-based
Settings: Table 5; table follows Assay Example 3 (whole cell voltage clamp / PatchXpress); assay not given
Protocol: Cells are grown either on poly-D-lysine coated coverglass (manual EP) or in TIS culture plates (PatchXpress). For the PatchExpress, cells are released from the flask using trypsin. In both cases, the […] solution is (in mM): 130 […], 10 EGTA, 10 HEPES, 2 MgCl2, 3 MgATP, pH 7.3 with CsOH.
Microelectrodes are fabricated from borosilicate glass and fire-polished. […] The reference electrode is a silver-silver chloride pellet. Voltages are not corrected for the liquid junction potential between the internal and external solutions and leak is subtracted using the P/n procedure. Solutions are applied to cells by bath perfusion via gravity. The experimental chamber volume is—0.2 mL. and the perfusion rate is 0.5-2 mL/min. Flow of suction through the chamber is maintained at all times. Measurement of current amplitudes is performed with […] software (HEKA Elektronik).
PatchXpress (Molecular Devices) is a 16-well whole-cell automated patch clamp device that operates asynchronously with fully integrated fluidics. […] Capacitance and series resistance compensation is automated. No correction for liquid junction potentials is employed. Leak is subtracted using the P/n procedure. Compounds are added to cells with a pipettor from a 96-well compound plate. Voltage protocols and the recording of membrane currents are performed using the PatchXpress software/hardware system. Current amplitudes are calculated with DataXpress software.
In both manual and automated patch clamp, cells are voltage clamped at […] or −90 m V and 50 ms pulses to +20 mV are applied every 15 sec (0.067 Hz). Compounds are added in escalating doses to measure % inhibition. Percent inhibition is calculated from the ratio of the curerent amplitude in the presence and absence of compound. When multiple doses are achieved per cell, IC50 values are calculated.

N-type calcium channel subunits (α1B, α2δ, and β3a), sequence (Q00975 whole entry): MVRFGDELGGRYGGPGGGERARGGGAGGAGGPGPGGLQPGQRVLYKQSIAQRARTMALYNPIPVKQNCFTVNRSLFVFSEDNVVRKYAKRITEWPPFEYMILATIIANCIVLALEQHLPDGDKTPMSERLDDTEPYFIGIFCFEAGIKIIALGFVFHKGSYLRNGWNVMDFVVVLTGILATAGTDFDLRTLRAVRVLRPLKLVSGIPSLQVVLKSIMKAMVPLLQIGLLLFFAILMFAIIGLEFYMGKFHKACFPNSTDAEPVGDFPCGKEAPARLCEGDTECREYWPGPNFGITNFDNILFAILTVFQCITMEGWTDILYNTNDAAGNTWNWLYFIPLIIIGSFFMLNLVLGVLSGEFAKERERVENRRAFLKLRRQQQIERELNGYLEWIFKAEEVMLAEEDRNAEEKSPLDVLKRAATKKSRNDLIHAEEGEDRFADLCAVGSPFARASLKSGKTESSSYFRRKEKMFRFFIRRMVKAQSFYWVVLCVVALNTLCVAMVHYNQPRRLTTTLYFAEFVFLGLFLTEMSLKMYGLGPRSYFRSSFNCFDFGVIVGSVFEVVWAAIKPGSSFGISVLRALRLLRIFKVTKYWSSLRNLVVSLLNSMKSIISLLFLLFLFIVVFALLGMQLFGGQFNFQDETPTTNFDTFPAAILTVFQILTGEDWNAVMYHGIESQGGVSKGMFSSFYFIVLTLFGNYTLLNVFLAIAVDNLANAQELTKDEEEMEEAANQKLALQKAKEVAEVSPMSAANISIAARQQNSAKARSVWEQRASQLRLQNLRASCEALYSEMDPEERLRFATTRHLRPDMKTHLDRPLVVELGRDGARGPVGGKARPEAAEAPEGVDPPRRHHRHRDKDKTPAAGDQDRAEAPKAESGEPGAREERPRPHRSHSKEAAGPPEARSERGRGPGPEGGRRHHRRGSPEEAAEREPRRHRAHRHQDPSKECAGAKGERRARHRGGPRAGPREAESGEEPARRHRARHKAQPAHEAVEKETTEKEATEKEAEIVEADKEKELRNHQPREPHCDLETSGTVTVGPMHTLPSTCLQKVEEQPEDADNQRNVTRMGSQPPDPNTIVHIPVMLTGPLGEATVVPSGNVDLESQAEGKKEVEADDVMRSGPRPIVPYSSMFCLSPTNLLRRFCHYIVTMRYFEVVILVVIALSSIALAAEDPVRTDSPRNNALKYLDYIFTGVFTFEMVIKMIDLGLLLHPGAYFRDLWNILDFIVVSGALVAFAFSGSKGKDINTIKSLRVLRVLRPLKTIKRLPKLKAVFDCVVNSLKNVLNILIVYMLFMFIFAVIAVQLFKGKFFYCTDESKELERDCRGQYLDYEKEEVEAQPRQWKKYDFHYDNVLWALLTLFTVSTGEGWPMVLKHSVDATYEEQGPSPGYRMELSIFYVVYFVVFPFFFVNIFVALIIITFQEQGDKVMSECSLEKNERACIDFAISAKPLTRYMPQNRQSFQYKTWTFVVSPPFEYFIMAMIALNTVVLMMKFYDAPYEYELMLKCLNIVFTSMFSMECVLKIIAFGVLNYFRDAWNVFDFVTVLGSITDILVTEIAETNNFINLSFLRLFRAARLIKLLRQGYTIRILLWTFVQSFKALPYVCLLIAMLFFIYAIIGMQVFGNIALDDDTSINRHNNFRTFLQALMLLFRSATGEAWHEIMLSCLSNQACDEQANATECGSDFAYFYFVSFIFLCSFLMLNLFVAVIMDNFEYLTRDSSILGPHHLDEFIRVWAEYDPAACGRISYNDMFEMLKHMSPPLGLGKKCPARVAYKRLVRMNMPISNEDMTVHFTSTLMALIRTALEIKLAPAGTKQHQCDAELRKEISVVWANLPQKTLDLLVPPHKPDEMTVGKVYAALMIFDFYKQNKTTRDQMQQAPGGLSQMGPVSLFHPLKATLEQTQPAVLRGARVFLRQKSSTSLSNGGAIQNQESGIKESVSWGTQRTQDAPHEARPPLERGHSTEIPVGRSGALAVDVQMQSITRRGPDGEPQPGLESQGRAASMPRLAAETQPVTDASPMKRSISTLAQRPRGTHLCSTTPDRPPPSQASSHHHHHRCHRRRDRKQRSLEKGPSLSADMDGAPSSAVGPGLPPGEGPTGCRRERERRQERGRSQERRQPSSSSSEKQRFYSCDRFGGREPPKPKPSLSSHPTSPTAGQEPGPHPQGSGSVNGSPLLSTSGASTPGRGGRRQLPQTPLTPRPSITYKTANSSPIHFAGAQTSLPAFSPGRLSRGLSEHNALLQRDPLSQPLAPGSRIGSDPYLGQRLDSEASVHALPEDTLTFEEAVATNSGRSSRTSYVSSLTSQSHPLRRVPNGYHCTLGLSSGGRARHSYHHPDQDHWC
N-type calcium channel subunits (α1B, α2δ, and β3a), sequence (P54289 25-1103 partner): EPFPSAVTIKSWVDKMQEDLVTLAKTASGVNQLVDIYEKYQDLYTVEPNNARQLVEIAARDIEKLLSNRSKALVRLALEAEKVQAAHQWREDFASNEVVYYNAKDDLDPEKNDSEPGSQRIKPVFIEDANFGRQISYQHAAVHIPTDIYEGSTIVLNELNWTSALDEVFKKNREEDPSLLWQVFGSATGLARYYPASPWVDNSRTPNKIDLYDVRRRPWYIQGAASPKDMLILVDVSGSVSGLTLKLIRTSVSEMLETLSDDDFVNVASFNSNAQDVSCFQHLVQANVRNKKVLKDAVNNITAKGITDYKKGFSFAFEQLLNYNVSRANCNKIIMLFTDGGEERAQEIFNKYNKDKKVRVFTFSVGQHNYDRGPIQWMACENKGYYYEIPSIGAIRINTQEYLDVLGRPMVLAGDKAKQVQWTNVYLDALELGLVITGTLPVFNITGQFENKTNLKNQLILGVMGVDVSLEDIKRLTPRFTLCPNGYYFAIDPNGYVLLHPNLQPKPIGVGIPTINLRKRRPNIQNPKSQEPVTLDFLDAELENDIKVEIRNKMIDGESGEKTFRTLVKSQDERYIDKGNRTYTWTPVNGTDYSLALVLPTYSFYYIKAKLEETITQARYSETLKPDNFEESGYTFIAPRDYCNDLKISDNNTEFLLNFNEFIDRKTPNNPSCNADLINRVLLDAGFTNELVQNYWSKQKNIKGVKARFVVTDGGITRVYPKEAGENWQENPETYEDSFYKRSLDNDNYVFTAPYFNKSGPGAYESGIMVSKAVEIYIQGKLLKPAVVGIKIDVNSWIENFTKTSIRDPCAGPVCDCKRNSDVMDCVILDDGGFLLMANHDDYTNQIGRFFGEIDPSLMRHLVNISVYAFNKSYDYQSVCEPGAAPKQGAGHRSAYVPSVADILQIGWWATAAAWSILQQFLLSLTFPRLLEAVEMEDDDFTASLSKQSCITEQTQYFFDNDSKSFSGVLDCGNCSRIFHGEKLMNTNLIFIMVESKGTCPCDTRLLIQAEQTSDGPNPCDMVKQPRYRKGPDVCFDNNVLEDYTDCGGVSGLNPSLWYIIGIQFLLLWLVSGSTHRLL
N-type calcium channel subunits (α1B, α2δ, and β3a), sequence (P54284 whole entry partner): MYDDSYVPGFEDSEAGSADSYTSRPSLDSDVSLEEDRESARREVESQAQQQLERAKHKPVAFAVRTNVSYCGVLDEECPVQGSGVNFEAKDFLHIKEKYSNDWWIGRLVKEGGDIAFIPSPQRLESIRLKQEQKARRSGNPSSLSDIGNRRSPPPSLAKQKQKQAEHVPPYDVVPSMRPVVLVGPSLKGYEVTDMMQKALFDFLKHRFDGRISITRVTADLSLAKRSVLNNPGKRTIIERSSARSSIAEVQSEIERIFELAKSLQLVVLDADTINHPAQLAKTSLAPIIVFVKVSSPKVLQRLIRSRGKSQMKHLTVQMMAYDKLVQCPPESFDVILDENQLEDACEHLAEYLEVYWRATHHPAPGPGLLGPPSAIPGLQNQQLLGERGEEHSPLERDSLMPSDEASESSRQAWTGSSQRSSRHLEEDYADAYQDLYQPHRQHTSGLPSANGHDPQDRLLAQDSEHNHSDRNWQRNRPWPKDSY

**Q.** How did the IC50 turn out when `O=C(CN[C@H]1C[C@H](S(=O)(=O)c2cccc(C(F)(F)F)c2)C1)N1CCC(C(F)(F)F)CC1` [Compound 214, 2-(trans-3-(3-(trifluoromethyl)phenylsulfonyl)cyclobutylamino)-1-(4-(trifluoromethyl)piperidin-1-yl)ethanone] was run?
**A.** 2090 nM

**Q.** How did the IC50 turn out when `CC(C)(C)NC(=O)CN[C@H]1C[C@H](S(=O)(=O)c2cccc(C(F)(F)F)c2)C1` [Compound 215, N-tert-butyl-2-(trans-3-(3-(trifluoromethyl)phenylsulfonyl)cyclobutylamino)acetamide] was run?
**A.** 2810 nM

**Q.** Which IC50 does the source give for `O=C(CN[C@H]1C[C@H](S(=O)(=O)c2cccc(C(F)(F)F)c2)C1)NC1CCCCC1` [Compound 216, N-cyclohexyl-2-(trans-3-(3-(trifluoromethyl)phenylsulfonyl)cyclobutylamino)acetamide] here?
**A.** 1010 nM

**Q.** With `O=C(N[C@H]1C[C@H](S(=O)(=O)c2cccc(C(F)(F)F)c2)C1)c1cc(F)cc(Cl)c1` [Compound 220, 3-chloro-5-fluoro-N-(trans-3-(3-(trifluoromethyl)phenylsulfonyl)cyclobutyl)benzamide] as the molecule, how does the IC50 read?
**A.** 3350 nM

**Q.** With `COc1cc(F)cc(C(=O)N[C@H]2C[C@H](S(=O)(=O)c3cccc(C(F)(F)F)c3)C2)c1` [Compound 222, 3-fluoro-5-methoxy-N-(trans-3-(3-(trifluoromethyl)phenylsulfonyl)cyclobutyl)benzamide] as the molecule, how does the IC50 read?
**A.** 2960 nM

**Q.** With `O=C(N[C@H]1C[C@H](S(=O)(=O)c2cccc(C(F)(F)F)c2)C1)c1ccc(F)c(C(F)(F)F)c1` [Compound 224, 4-fluoro-3-(trifluoromethyl)-N-(trans-3-(3-(trifluoromethyl)phenylsulfonyl)cyclobutyl)benzamide] as the molecule, how does the IC50 read?
**A.** 1500 nM

**Q.** How did the IC50 turn out when `O=C(N[C@H]1C[C@H](S(=O)(=O)c2cccc(C(F)(F)F)c2)C1)c1ccc(F)c(Cl)c1` [Compound 225, 3-chloro-4-fluoro-N-(trans-3-(3-(trifluoromethyl)phenylsulfonyl)cyclobutyl)benzamide] was run?
**A.** 2350 nM

**Q.** How did the IC50 turn out when `Cn1nc(C(F)(F)F)cc1C(=O)N[C@H]1C[C@H](S(=O)(=O)c2cccc(C(F)(F)F)c2)C1` [Compound 226, 1-methyl-3-(trifluoromethyl)-N-(trans-3-(3-(trifluoromethyl)phenylsulfonyl)cyclobutyl)-1H-pyrazole-5-carboxamide] was run?
**A.** 2150 nM

**Q.** How did the IC50 turn out when `COc1cc(F)cc(C(=O)NC[C@]2(O)CC[C@@H](S(=O)(=O)c3cccc(C(F)(F)F)c3)CC2)c1` [Compound 229, 3-fluoro-N-(((1S,4S)-1-hydroxy-4-(3-(trifluoromethyl)phenylsulfonyl)cyclohexyl)methyl)-5-methoxybenzamide] was run?
**A.** 1020 nM

**Q.** How did the IC50 turn out when `Cn1nc(C(F)(F)F)cc1C(=O)NC[C@]1(O)CC[C@@H](S(=O)(=O)c2cccc(C(F)(F)F)c2)CC1` [Compound 231, N-(((1S,4S)-1-hydroxy-4-(3-(trifluoromethyl)phenylsulfonyl)cyclohexyl)methyl)-1-methyl-3-(trifluoromethyl)-1H-pyrazole-5-carboxamide] was run?
**A.** 1870 nM

**Q.** Which IC50 does the source give for `O=C(NC[C@]1(O)CC[C@@H](S(=O)(=O)c2cccc(C(F)(F)F)c2)CC1)c1ccc(C(F)(F)F)cn1` [Compound 232, N-(((1S,4S)-1-hydroxy-4-(3-(trifluoromethyl)phenylsulfonyl)cyclohexyl)methyl)-5-(trifluoromethyl)picolinamide] here?
**A.** 2660 nM

**Q.** Which IC50 does the source give for `CS(=O)(=O)c1cc(C(F)(F)F)ccc1C(=O)NC[C@]1(O)CC[C@@H](S(=O)(=O)c2cccc(C(F)(F)F)c2)CC1` [Compound 233, N-(((1S,4S)-1-hydroxy-4-(3-(trifluoromethyl)phenylsulfonyl)cyclohexyl)methyl)-2-(methylsulfonyl)-4-(trifluoromethyl)benzamide] here?
**A.** 3570 nM

**Q.** With `O=C(NC[C@]1(O)CC[C@@H](S(=O)(=O)c2cccc(C(F)(F)F)c2)CC1)c1ccc(C(F)(F)F)nc1` [Compound 235, N-(((1S,4S)-1-hydroxy-4-(3-(trifluoromethyl)phenylsulfonyl)cyclohexyl)methyl)-6-(trifluoromethyl)nicotinamide] as the molecule, how does the IC50 read?
**A.** 5940 nM
